Data: patent US8084643B2, “Water-soluble prodrugs of florfenicol and its analogs” (Intervet Inc., priority 2006, dated 2011)
Read-outs that look alike come from different tables or passages of the source.

Experiments:
[1] = Stability of prodrugs in swine serum; assay type: in vitro ADME; settings: 37° C., florfenicol release by HPLC
Procedure: (§1) Determination of stability of prodrugs in bovine or swine serum; • 10 mg/mL in dimethylsulfoxide stock solutions of pro-drugs were prepared. 50 μL of the above stock solution was added to 5 mL bovine or swine serum, and mixed. 400 μL aliquots of the above pro-drug serum solutions were transferred into plastic tubes (one tube per time point). Solutions were incubated at 37° C. for predetermined time. Samples were removed at times 0, 1, 2, 4, 8, and 24 hours and were spiked with 400 μL of acetonitrile. Samples were stirred for 30 seconds to precipitate the protein and to stop the reaction and were centrifuged at 14,000 rpm for 5 minutes. The supernatant was collected for HPLC analysis. Peak area of florfenicol was used to determine the rate of the parent drug release HPLC Conditions
(§2) Solvent: gradient with 0.1% formic acid in water, acetonitrile

[2] = Stability of prodrugs in aqueous solution at pH 7.4 (phosphate buffer); assay type: physicochemical
Procedure: Determination of stability of prodrugs in aqueous solutions.
Prodrugs were dissolved in pH 7.4 phosphate buffer at concentration of 1 mg/mL. • The clear solution was placed at room temperature. 400 μL aliquots of the solution were transferred at times 0, 1, 2, 8, 24, and 48 hours to plastic tubes containing 400 μL dilute HCl solution to achieve the final pH of around 4.0. Samples were analyzed by HPLC. The peak area of florfenicol was used to determine the rate of the parent drug release. at pH 4.5 • Prodrugs were dissolved in distilled water at concentration of 0.5 mg/mL. The pH was adjusted to 4.5 with dilute HCl when necessary. The clear solution was placed at room temperature. Samples for analysis were removed at times 0, 1, 2, 4, and 7 days. Samples were analyzed by HPLC. Peak area of florfenicol was used to determine the rate of the parent drug release.
as §2

[3] = Stability of prodrugs in bovine serum; assay type: in vitro ADME; settings: for half-life at 0.099 mg/mL: 37° C.
Procedure: as §1, §2

[4] = Stability of prodrugs in aqueous solution at pH 7.4 (phosphate buffer); assay type: physicochemical; settings: in vitro evaluation, pH 7.4 adjusted solution
[5] = Stability of prodrugs in aqueous solution at pH 4.5; assay type: physicochemical; settings: distilled water, pH 4.5, room temperature, florfenicol release by HPLC
Procedure: Determination of stability of prodrugs in aqueous solutions. Prodrugs were dissolved in pH 7.4 phosphate buffer at concentration of 1 mg/mL. • The clear solution was placed at room temperature. 400 μL aliquots of the solution were transferred at times 0, 1, 2, 8, 24, and 48 hours to plastic tubes containing 400 μL dilute HCl solution to achieve the final pH of around 4.0. Samples were analyzed by HPLC. The peak area of florfenicol was used to determine the rate of the parent drug release. at pH 4.5 • Prodrugs were dissolved in distilled water at concentration of 0.5 mg/mL. The pH was adjusted to 4.5 with dilute HCl when necessary. The clear solution was placed at room temperature. Samples for analysis were removed at times 0, 1, 2, 4, and 7 days. Samples were analyzed by HPLC. Peak area of florfenicol was used to determine the rate of the parent drug release. Instrument: Agilent 1100 Column: C18, […], 2.1 mm×150 mm Flow rate: 0.5 mL/min Temperature: 30° C. Detector: UV 254 nm Injection volume: […] Solvent: gradient with 0.1% formic acid in water, acetonitrile

[6] = pH 7.4, pH 7.4 phosphate buffer, 1 mg/mL, room temperature, florfenicol release by HPLC, read-out: Half life pH 7.4 (converted)
[7] = pH 7.4, pH 7.4 aqueous solutions, range from a few minutes to 3 hrs, read-out: Half-lives in pH 7.4 aqueous solutions

SMILES	half-life at 0.099 mg/mL [1]	half-life at 1 mg/mL [2, 6]	half-life at 0.099 mg/mL ([3]; florfenicol release by HPLC)	formation of the rearranged isomer of the prodrug [4]	half-life at 0.5 mg/mL [5]	half-life at 1 mg/mL [2, 7]	half-life at 0.099 mg/mL ([3]; min)	half-life at 1 mg/mL ([2]; pH 7.4, pH 7.4 phosphate buffer, 1 mg/mL, room temperature, min, read-out: Half life pH 7.4 (converted))	rearrangement in bovine serum [3]
CNCCCOC(=O)O[C@H](c1ccc(S(C)(=O)=O)cc1)[C@@H](CF)NC(=O)C(Cl)Cl.Cl [Example 6, (1R,2S)-2-(2,2-dichloroacetamido)-3-fluoro-1-(4-(methylsulfonyl)phenyl)propyl 3-(methylamino)propyl carbonate hydrochloride]	7 h	74 h	0.69 h	did not show any formation of the rearranged isomer	269 days				
CNCCCCC(=O)O[C@H](c1ccc(S(C)(=O)=O)cc1)[C@@H](CF)NC(=O)C(Cl)Cl.Cl [Example 12]		84 h	1.4 h		567 days				
CS(=O)(=O)c1ccc([C@@H](OC(=O)CCCCN)[C@@H](CF)NC(=O)C(Cl)Cl)cc1.Cl [Example 10, (1R,2S)-2-(2,2-dichloroacetamido)-3-fluoro-1-(4-(methylsulfonyl)phenyl)propyl 5-aminopentanoate hydrochloride]	4.1 h	100 h	0.49 h		643 days				
CS(=O)(=O)c1ccc([C@@H](OC(=O)CNC(=O)CN)[C@@H](CF)NC(=O)C(Cl)Cl)cc1.Cl [Example 9, (1R,2S)-2-(2,2-dichloroacetamido)-3-fluoro-1-(4-(methylsulfonyl)phenyl)propyl (1-amino-acetoamino)acetate hydrochloride]	1.2 h	0.89 h	1.4 h		52 days	≤ 3 h			
CS(=O)(=O)c1ccc([C@@H](OC(=O)COCCN)[C@@H](CF)NC(=O)C(Cl)Cl)cc1.Cl [Example 14, (1R,2S)-2-(2,2-dichloroacetamido)-3-fluoro-1-(4-(methylsulfonyl)phenyl)propyl (2-amino-ethoxy)acetate hydrochloride]		0.66 h			137 days	≤ 3 h	< 0.167 h		
C[C@@H](N)C(=O)NCCCC(=O)O[C@H](c1ccc(S(C)(=O)=O)cc1)[C@@H](CF)NC(=O)C(Cl)Cl.Cl [Example 4, (1R,2S)-2-(2,2-dichloroacetamido)-3-fluoro-1-(4-(methylsulfonyl)phenyl)propyl 4-(2-amino-propionylamino)butyrate hydrochloride]		670 h	6.5 h		278 days				
CCNCCCOC(=O)O[C@H](c1ccc(S(C)(=O)=O)cc1)[C@@H](CF)NC(=O)C(Cl)Cl.Cl [Example 13, (1R,2S)-2-(2,2-dichloroacetamido)-3-fluoro-1-(4-(methylsulfonyl)phenyl)propyl 3-(ethylamino)propyl carbonate hydrochloride]		290 h	0.71 h		339 days				
Br.Cn1cc[n+](CCCC(=O)O[C@H](c2ccc(S(C)(=O)=O)cc2)[C@@H](CF)NC(=O)C(Cl)Cl)c1 [Example 16, 1-[3-[2-(2,2-Dichloro-acetylamino)-3-fluoro-1-(4-methanesulfonyl-phenyl)-propoxycarbonyl]-propyl]-3-methyl-3H-imidazol-1-ium bromide]		350 h	10.5 h		> 1000 days				
CNCCOC(=O)O[C@H](c1ccc(S(C)(=O)=O)cc1)[C@@H](CF)NC(=O)C(Cl)Cl.Cl [Example 2, (1R,2S)-2-(2,2-dichloroacetamido)-3-fluoro-1-(4-(methylsulfonyl)phenyl)propyl 2-(methylamino)ethyl carbonate hydrochloride]		0.5 h		considerable amounts	487 days	≤ 3 h			
CS(=O)(=O)c1ccc([C@@H](OC(=O)CCCN)[C@@H](CF)NC(=O)C(Cl)Cl)cc1.Cl [Example 3, (1R,2S)-2-(2,2-dichloroacetamido)-3-fluoro-1-(4-(methylsulfonyl)phenyl)propyl 4-aminobutyrate hydrochloride]		300 h	3.5 h						
CCNCCOC(=O)O[C@H](c1ccc(S(C)(=O)=O)cc1)[C@@H](CF)NC(=O)C(Cl)Cl.Cl [Example 7, (1R,2S)-2-(2,2-dichloroacetamido)-3-fluoro-1-(4-(methylsulfonyl)phenyl)propyl 2-(ethylamino)ethyl carbonate hydrochloride]		6.1 h	0.59 h	considerable amounts	156 days	≤ 3 h			
CS(=O)(=O)c1ccc([C@@H](OC(=O)[C@H](N)CCCN)[C@@H](CF)NC(=O)C(Cl)Cl)cc1.Cl.Cl [Example 8]					44 days	≤ 3 h	< 0.167 h	< 0.167 h	
CS(=O)(=O)c1ccc([C@@H](OC(=O)OCCCN)[C@@H](CF)NC(=O)C(Cl)Cl)cc1.Cl [Example 5, (1R,2S)-2-(2,2-dichloroacetamido)-3-fluoro-1-(4-(methylsulfonyl)phenyl)propyl 3-aminopropyl carbonate hydrochloride]	9.5 h	83 h	3.8 h	only a small amount of rearrangement product	248 days				no rearrangement was observed
CS(=O)(=O)c1ccc([C@@H](OC(=O)OCCN)[C@@H](CF)NC(=O)C(Cl)Cl)cc1.Cl [Example 1, (1R,2S)-2-(2,2-dichloroacetamido)-3-fluoro-1-(4-(methylsulfonyl)phenyl)propyl 2-aminoethyl carbonate hydrochloride]		1.8 h	0.7 h	considerable amounts	202 days	≤ 3 h			
CS(=O)(=O)c1ccc([C@@H](OC(=O)CN)[C@@H](CF)NC(=O)C(Cl)Cl)cc1 [Example 17, Amino-acetic acid 2-(2,2-dichloro-acetylamino)-3-fluoro-1-(4-methanesulfonyl-phenyl)-propyl ester]		4.4 h	1.8 h		18 days				
Br.C[N+](C)(C)CCCC(=O)O[C@H](c1ccc(S(C)(=O)=O)cc1)[C@@H](CF)NC(=O)C(Cl)Cl [Example 15]		160 h			> 1000 days				
C[C@H](N)C(=O)N[C@@H](C)C(=O)O[C@H](c1ccc(S(C)(=O)=O)cc1)[C@@H](CF)NC(=O)C(Cl)Cl.Cl [Example 11, (1R,2S)-2-(2,2-dichloroacetamido)-3-fluoro-1-(4-(methylsulfonyl)phenyl)propyl 2-(2-amino-propionylamino)propionate hydrochloride]		2.5 h			290 days	≤ 3 h	< 0.167 h		
